The values that follow come from patent publication US20050277142A1, “Recombinant cell line for the detection of dioxin-like compounds based on the expression of luciferase gene” (priority 2004, published 2005).

The conditions of data set [1]: cited from earlier work.
Data set [2] relates to aryl hydrocarbon receptor (AHR). Particulars: 2,3,7,8-TCDD set to 1; cited from earlier work.
Data set [3] deals with dioxin-response elements (DREs)-luciferase in Hepa1c1c7-M4P2 cells. Description: luciferase light intensity bioassay in transfected cell line Hepa1c1c7-M4P2. In kind it is cell-based, mouse. The protocol: (§1) The transfected cells (4×10^5 cells/well) were placed in a 24 well-culture plate. To each well was added 1 mL of culture medium (DMEM+10% FBS). Thereafter, the culture plate was placed in a constant-temperature incubator set at 37° C. and 5% CO2 for two hours to permit cell adhesion.
(§2) The Dioxin (2,3,7,8-TCDD) stock solution with a concentration of 10 μg/mL was subjected to 10-fold serial dilution. 3.22 μl of each diluted solution was taken and added to each well of the culture plate, such that the final concentrations of dioxin in the experimental groups are 10 nM, 1 nM, 100 pM, […], 10 pM, 1 pM and 0.1 pM, respectively. Each experimental group was prepared in quadruplicate. The normal control group was not subjected to any treatment, whereas the solvent control group was treated using 3.22 μl of DMSO. […]
(§3) 100 μl of the lysate obtained in each group was taken and added to each well of a non-transparent 96-well plate, followed by addition of 50 μl of luciferin (which is included in the Luciferase Assay System, (Cat#1500), Promega Cooperation). Finally, the plate was sent to a Beckman coulter DU640B spectrophotometer (set at PMT:1100; read length:0.5; and Gain:1˜100) for automatic detection of the light intensity within 20 seconds. The experimental results thus obtained were analyzed and plotted using statistical analysis, so as to determine whether the results have statistic significance. […]

For data set [4], the system named is dioxin-response elements (DREs)-luciferase in Hepa1c1c7-MP cells. Nature of the data set: luciferase light intensity bioassay in transfected cell line Hepa1c1c7-MP. The format is cell-based, mouse. As to the method:
as §1, §2, §3

Setting [5] is: 100 pM 2,3,7,8-TCDD, 5, 10, 15 and 20 hours tested.

As to “2,3,7,8-tetrachloro-dibenzo-p-dioxin [2,3,7,8-TCDD]”, the water solubility in data set [1] was 0.0193 ng/mL.
For the molecule `Clc1cc2c(c(Cl)c1Cl)Oc1c(Cl)c(Cl)c(Cl)c(Cl)c1O2` [1,2,3,4,6,7,8-HpCDD], the I-TEF in data set [2] was 0.01.
Regarding `Clc1cc2c(oc3c(Cl)c(Cl)c(Cl)c(Cl)c32)c(Cl)c1Cl` [1,2,3,4,6,7,8-HpCDF], the I-TEF in data set [2] was 0.01.
As for `Clc1cc2oc3c(Cl)c(Cl)c(Cl)c(Cl)c3c2c(Cl)c1Cl` [1,2,3,4,7,8,9-HpCDF], the I-TEF in data set [2] is 0.01.
In the case of `Clc1cc2c(cc1Cl)Oc1c(Cl)c(Cl)c(Cl)c(Cl)c1O2` [1,2,3,4,7,8-HxCDD], the I-TEF in data set [2] is 0.1.
For the molecule `Clc1cc2oc3c(Cl)c(Cl)c(Cl)c(Cl)c3c2cc1Cl` [1,2,3,4,7,8-HxCDF], in data set [2], the I-TEF was 0.1.
With `Clc1cc2c(c(Cl)c1Cl)Oc1cc(Cl)c(Cl)c(Cl)c1O2` [1,2,3,6,7,8-HxCDD], the I-TEF in data set [2] is on record as 0.1.
With `Clc1cc2c(oc3cc(Cl)c(Cl)c(Cl)c32)c(Cl)c1Cl` [1,2,3,6,7,8-HxCDF], in data set [2], the I-TEF was 0.1.
`Clc1cc2c(c(Cl)c1Cl)Oc1c(cc(Cl)c(Cl)c1Cl)O2` [1,2,3,7,8,9-HxCDD]: the I-TEF in data set [2] was 0.1.
As for `Clc1cc2oc3cc(Cl)c(Cl)c(Cl)c3c2c(Cl)c1Cl` [1,2,3,7,8,9-HxCDF], in data set [2], the I-TEF is listed as 0.1.
For `Clc1cc2c(cc1Cl)Oc1c(cc(Cl)c(Cl)c1Cl)O2` [1,2,3,7,8-PeCDD], the I-TEF in data set [2] was 0.5.
Regarding `Clc1cc2oc3cc(Cl)c(Cl)c(Cl)c3c2cc1Cl` [1,2,3,7,8-PeCDF], in data set [2], the I-TEF was 0.05.
Turning to `Clc1cc2c(oc3c(Cl)c(Cl)c(Cl)cc32)c(Cl)c1Cl` [2,3,4,6,7,8-HxCDF], the I-TEF in data set [2] was 0.1.
For the molecule `Clc1cc2c(cc1Cl)Oc1cc(Cl)c(Cl)cc1O2` [2,3,7,8-TCDD, 2,3,7,8-tetrachloro-dibenzo-p-dioxin], the “dioxin treatment time giving the most stable and the optimal light intensity result” value in data set [3] (setting [5]) was 15 h; in data set [4] (setting [5]) it was 20 h. Besides, the “lowest limit of dioxin detection (obvious light intensity changes vs controls)” value in data set [3] (15 hours treatment) is on record as 5 pM. Moreover, the “lowest limit of dioxin detection (significant light intensity changes vs controls)” value in data set [4] (15 hours treatment) worked out at 5 pM. For the same molecule, in data set [2], the I-TEF is on record as 1.
In the case of `Clc1cc2oc3cc(Cl)c(Cl)cc3c2cc1Cl` [2,3,7,8-TCDF], the I-TEF in data set [2] is listed as 0.1.
As to `Clc1c(Cl)c(Cl)c2c(c1Cl)Oc1c(Cl)c(Cl)c(Cl)c(Cl)c1O2` [OCDD], in data set [2], the I-TEF is 0.001.
Regarding `Clc1c(Cl)c(Cl)c2c(oc3c(Cl)c(Cl)c(Cl)c(Cl)c32)c1Cl` [OCDF], the I-TEF in data set [2] is recorded as 0.001.
